Measured values published in US10703746B2, “Mutant IDH1 inhibitors useful for treating cancer” (THE UNITED STATES OF AMERICA, AS REPRESENTED BY THE …, priority 2014, dated 2020).

How the values were obtained:
IDH1 R132C = IDH1 R132C (Homo sapiens, UniProt O75874, R132C); assay: IDH1 R132C enzymatic assay (NADPH depletion coupled to diaphorase/resazurin); assay type: biochemical
Method in brief: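 NADPH depletion, read via diaphorase/resazurin coupling, after adding substrate at 0.6 mM α-KG and 0.012 mM NADPH. Beforehand, 0.00032 mg/mL enzyme sat with compound 30 min at room temperature in pH 6.5 potassium phosphate buffer with MgCl2, glycerol and BSA.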

IDH1 R132H = IDH1 R132H (Homo sapiens, UniProt O75874, R132H); assay: IDH1 R132H enzymatic assay (NADPH depletion coupled to diaphorase/resazurin); assay type: biochemical
[1] = enzymatic inhibition, IDH1 R132C
[2] = enzymatic inhibition, IDH1 R132H
[3] = IDH1 R132C enzymatic inhibition, IC50 class
[4] = IDH1 R132H enzymatic inhibition, IC50 class

Chain of IDH1 R132H (O75874 whole entry R132H): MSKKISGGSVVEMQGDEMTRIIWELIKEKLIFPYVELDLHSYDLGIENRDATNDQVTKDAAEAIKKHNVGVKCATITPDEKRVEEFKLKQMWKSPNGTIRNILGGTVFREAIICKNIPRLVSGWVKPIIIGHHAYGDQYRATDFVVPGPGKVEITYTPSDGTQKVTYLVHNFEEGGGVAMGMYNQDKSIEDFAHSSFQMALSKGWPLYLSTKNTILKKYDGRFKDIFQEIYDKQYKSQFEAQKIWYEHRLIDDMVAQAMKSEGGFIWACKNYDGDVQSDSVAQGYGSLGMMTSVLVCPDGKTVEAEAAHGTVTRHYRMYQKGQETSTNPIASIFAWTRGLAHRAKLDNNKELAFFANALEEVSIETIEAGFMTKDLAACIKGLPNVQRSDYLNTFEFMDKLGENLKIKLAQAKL
Chain of IDH1 R132C (O75874 whole entry R132C): as the sequence (O75874 whole entry R132H) above, with H132C counted along it

Structure (SMILES) | IC50 (IDH1 R132C; [1]) | IC50 (IDH1 R132H; [2]) | IC50 (IDH1 R132C; [3]) | IC50 (IDH1 R132H; [4])
Cc1ccccc1Oc1nc(C)c(C(=O)N2CCNCC2)cc1-c1nc(-c2ccc(Cl)cc2)cs1 [Compound 462] | 5 to 20 µM | 5 to 20 µM |  | 
CC(C)n1c2c(cc(-c3nc(-c4ccc(Cl)cc4)cs3)c1=O)C(=O)CC(C)(C)C2 [Compound 55] |  |  | 1 to 5 µM | > 20 µM
CCc1ccc(Cl)c(CC)c1-n1c(C)c(C(=O)N2CCNCC2)cc(-c2nc(-c3ccc(Cl)cc3)cs2)c1=O [Compound 600] | 1 to 5 µM | 0.3 to 1 µM |  | 
COc1cccc(OC)c1-n1c2c(cc(-c3nc(-c4ccc(Cl)cc4)cs3)c1=O)C(=O)CC(C)(C)C2 [Compound 59] |  |  | 1 to 5 µM | 1 to 5 µM
CCc1cccc(CC)c1-n1c(C)c(C(=O)NC2CCCCC2)cc(-c2nc(-c3ccc(Cl)cc3)cs2)c1=O [Compound 116] |  |  | 1 to 5 µM | > 20 µM
CCc1cccc(CC)c1-n1c(C(C)C)c(C(=O)N2CCN[C@@H](CO)C2)cc(-c2nc(-c3ccc(Cl)cc3)cs2)c1=O [Compound 229] |  |  | < 0.3 µM | 0.3 to 1 µM
CCc1ncc(OC)cc1-n1c(C=C(C)C)c(C(=O)N2CCNCC2)cc(-c2nc(-c3ccc(Cl)cc3)cs2)c1=O [Compound 416] | < 0.3 µM | < 0.3 µM |  | 
CCc1cccc(CC)c1-n1c(C)c(C(=O)N2CCN[C@@H](CO)C2)cc(-c2nc(-c3ccc(Cl)cc3)cs2)c1=O [Compound 220] |  |  | 0.3 to 1 µM | < 0.3 µM
O=C1CCCc2c1cc(-c1nc(-c3ccc(Cl)cc3)cs1)c(=O)n2-c1ccccc1OCC(F)(F)F [Compound 343] |  |  | 1 to 5 µM | 1 to 5 µM
CCc1cccc(CC)c1-n1c(C=C(C)C)c(C(=O)N2CCC3(CNC3)C2)cc(-c2nc(-c3ccc(Cl)cc3)cs2)c1=O [Compound 519] | < 0.3 µM | 0.3 to 1 µM |  | 
Cc1ccc(N)cc1-n1c2c(cc(-c3nc(-c4ccc(Cl)cc4)cs3)c1=O)C(=O)CC(C)(C)C2 [Compound 26] |  |  | 1 to 5 µM | 1 to 5 µM
CCc1cccc(CC)c1-n1c(CC(C)C)c(C(=O)NCC(C)(C)O)cc(-c2nc(-c3ccc(Cl)cc3)cs2)c1=O [Compound 77] |  |  | < 0.3 µM | 0.3 to 1 µM
CCc1cccc(CC)c1-n1c(C)c(C(=O)N2CCC(NC)C2)cc(-c2nc(-c3ccc(Cl)cc3)cs2)c1=O (stereo not shown) [Compound 207] |  |  | 1 to 5 µM | 1 to 5 µM
CCc1cccc(CC)c1-n1c(C=C(C)C)c(C(=O)N2CCNCC23COC3)cc(-c2nc(-c3ccc(Cl)cc3)cs2)c1=O [Compound 443] | < 0.3 µM | 0.3 to 1 µM |  | 
CC(C)=Cc1c(C(=O)N2CCNCC2)cc(-c2nc(-c3ccc(Cl)cc3)cs2)c(=O)n1-c1c(Cl)cccc1OC(C)C [Compound 367] |  |  | < 0.3 µM | < 0.3 µM
CC1(C)CC(=O)c2cc(-c3nc(-c4ccc(Cl)cc4)cs3)c(=O)n(-c3ccccc3CO)c2C1 [Compound 269] |  |  | 1 to 5 µM | 5 to 20 µM
COc1ccc(OC)c(-n2c3c(cc(-c4nc(-c5ccc(Cl)cc5)cs4)c2=O)C(=O)CNC3)c1 [Compound 280] |  |  | 5 to 20 µM | 5 to 20 µM
CCc1cccc(CC)c1-n1c(CC(C)C)c(C(=O)N2[C@H](C)CNC[C@@H]2C)cc(-c2nc(-c3ccc(Cl)cc3)cs2)c1=O [Compound 61] |  |  | < 0.3 µM | 0.3 to 1 µM
CCc1cccc(CC)c1-n1c(CC(C)C)c(C(=O)N2CCNC(C)C2)cc(-c2nc(-c3ccc(Cl)cc3)cs2)c1=O (stereo not shown) [Compound 305] |  |  | < 0.3 µM | 0.3 to 1 µM
CCc1cccc(CC)c1-n1c(C=C(C)C)c(C(=O)N2CCNC(=O)C2CC(=O)O)cc(-c2nc(-c3ccc(Cl)cc3)cs2)c1=O (stereo not shown) [Compound 337] |  |  | < 0.3 µM | < 0.3 µM
O=c1c(-c2nc(-c3ccc(Cl)cc3)cs2)cc2c(O)cccc2n1-c1cccnc1 [Compound 514] | 1 to 5 µM | > 20 µM |  | 
CCc1cccc(CC)c1-n1c(C(CC)OC)c(C(=O)N2CCNCC2)cc(-c2nc(-c3ccc(Cl)cc3)cs2)c1=O (stereo not shown) [Compound 456] | 0.3 to 1 µM | 0.3 to 1 µM |  | 
O=C1CCCc2c1cc(-c1nc(-c3ccc(Cl)cc3)cs1)c(=O)n2-c1cccnc1 [Compound 481] | > 20 µM | > 20 µM |  | 
CCc1ccc(Cl)c(CC)c1-n1c2c(cc(-c3nc(-c4ccc(Cl)cc4)cs3)c1=O)C(=O)CC(C)(C)C2 [Compound 548] | < 0.3 µM | < 0.3 µM |  | 
Cc1ccc(-n2c3c(cc(-c4nc(-c5ccc(Cl)cc5)cs4)c2=O)C(=O)CC(C)(C)C3)c(Cl)c1 [Compound 594] | 1 to 5 µM | > 20 µM |  | 
CCc1cccc(CC)c1-n1c(C=C(C)C)c(C(=O)N2CCNC(C(N)=O)C2)cc(-c2ccn(-c3ccc(Cl)cc3)n2)c1=O (stereo not shown) [Compound 653] |  |  | < 0.3 µM | < 0.3 µM
